# Test results published in patent publication US20230085307A1, “PYRIDAZINONE COMPOUND AND HERBICIDE” (NISSAN CHEMICAL CORPORATION, priority 2019, published 2023).
# Key:
# late watergrass = assay: Test Example 1: herbicidal activity, application before weed generation under submerged conditions (Table 16, symbol A); assay type: in vivo, late watergrass (Echinochloa oryzicola); conditions: for Herbicidal effect, A: late watergrass: amount of applied herbicide 320 g/ha
# In short: (§1)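 Emulsion formulation, water-diluted to set dose, was put onto the flooded surface (4 cm depth, alluvial soil) the same day weeds were sown and 2.5-leaf rice transplanted. After 3 weeks at 25-30 °C under glass, each species was rated 0 (≤5% kill) to 5 (≥90% kill).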
# Japanese bulrush = assay: Test Example 1: herbicidal activity, application before weed generation under submerged conditions (Table 16, symbol B); assay type: in vivo, Japanese bulrush (Schoenoplectus juncoides); conditions: for Herbicidal effect, B: Japanese bulrush: amount of applied herbicide 320 g/ha
# In short: as §1
# oval-leafed pondweed = assay: Test Example 1: herbicidal activity, application before weed generation under submerged conditions (Table 16, symbol C); assay type: in vivo, oval-leafed pondweed (Monochoria vaginalis); conditions: for Herbicidal effect, C: oval-leafed pondweed: amount of applied herbicide 320 g/ha
# In short: as §1
# southern crabgrass = assay: Test Example 5: herbicidal effect by foliage application, plastic box (Table 20, symbol F); assay type: in vivo, southern crabgrass (Digitaria ciliaris)
# In short: (§2)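 Post-emergence foliar test in sterilized diluvial soil. Compound applied as water-diluted emulsion at a predetermined rate to 14-day-old plants; evaluation at three weeks.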
# green foxtail = assay: Test Example 5: herbicidal effect by foliage application, plastic box (Table 20, symbol G); assay type: in vivo, green foxtail (Setaria viridis)
# In short: as §2
# barnyard grass [1] = assay: Test Example 5: herbicidal effect by foliage application, plastic box (Table 20, symbol H); assay type: in vivo, barnyard grass (Echinochloa crus-galli)
# In short: as §2
# wild oat = assay: Test Example 5: herbicidal effect by foliage application, plastic box (Table 20, symbol I); assay type: in vivo, wild oat (Avena fatua)
# In short: as §2
# blackgrass = assay: Test Example 5: herbicidal effect by foliage application, plastic box (Table 20, symbol J); assay type: in vivo, blackgrass (Alopecurus myosuroides)
# In short: as §2
# Italian ryegrass = assay: Test Example 5: herbicidal effect by foliage application, plastic box (Table 20, symbol K); assay type: in vivo, Italian ryegrass (Lolium multiflorum)
# In short: as §2
# windgrass = assay: Test Example 5: herbicidal effect by foliage application, plastic box (Table 20, symbol L); assay type: in vivo, windgrass (Apera spica-venti); conditions: foliage application
# In short: as §2
# velvetleaf = assay: Test Example 5: herbicidal effect by foliage application, plastic box (Table 20, symbol M); assay type: in vivo, velvetleaf (Abutilon theophrasti)
# In short: as §2
# redroot pigweed = assay: Test Example 5: herbicidal effect by foliage application, plastic box (Table 20, symbol N); assay type: in vivo, redroot pigweed (Amaranthus retroflexus); conditions: evaluated three weeks after application
# In short: as §2
# lambsquarters = assay: Test Example 5: herbicidal effect by foliage application, plastic box (Table 20, symbol O); assay type: in vivo, lambsquarters (Chenopodium album)
# In short: as §2
# chickweed = assay: Test Example 5: herbicidal effect by foliage application, plastic box (Table 20, symbol P); assay type: in vivo, common chickweed (Stellaria media)
# In short: as §2
# persian speedwell = assay: Test Example 5: herbicidal effect by foliage application, plastic box (Table 20, symbol R); assay type: in vivo, Persian speedwell (Veronica persica)
# In short: as §2
# barnyard grass [2] = assay: Test Example 3: herbicidal effect by foliage application, Wagner pot (Table 18, symbol H); assay type: in vivo, barnyard grass (Echinochloa crus-galli); conditions: for herbicidal effect on barnyard grass (H): 320 g/ha
# In short: (§3)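 Plants were sown in alluvial soil held under 0.1–0.5 cm standing water and grown 14 days in a greenhouse at 25–30 °C. An emulsifiable formulation, water-diluted to the set dose, was then sprayed onto the foliage, and effects were scored three weeks later using previously defined criteria.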
# Chinese sprangletop = assay: Test Example 3: herbicidal effect by foliage application, Wagner pot (Table 18, symbol D); assay type: in vivo, chinese sprangletop (Leptochloa chinensis); conditions: for herbicidal effect on Chinese sprangletop (D): 320 g/ha
# In short: as §3
# rice flat sedge = assay: Test Example 3: herbicidal effect by foliage application, Wagner pot (Table 18, symbol E); assay type: in vivo, rice flat sedge (Cyperus iria); conditions: for herbicidal effect on rice flat sedge (E): 320 g/ha
# In short: as §3
# [3] = foliage application, AAH 320 g/ha, evaluated three weeks after application
# [4] = amount of applied herbicide 320 g/ha
# [5] = foliage application, 320 g/ha, three weeks after application
# [6] = 320 g/ha, foliage application after 14-day growth, evaluated three weeks after application
# [7] = amount of applied herbicide 320 g/ha, foliage application after 14-day growth, evaluated three weeks after application
smiles,measurement,setting,value
Cc1nn(C)c(=O)c(-c2c(-c3cccc(OC(C)C#N)c3)sc3ccc(F)cc23)c1O (stereo not drawn) [2-277],Herbicidal effect on A: late watergrass (grade 0-5),late watergrass; 320 g/ha applied herbicide,1 (Herbicidal rate of 5% or more and less than 20%)
same,Herbicidal effect on B: Japanese bulrush (grade 0-5),Japanese bulrush; 320 g/ha applied herbicide,0 (Herbicidal rate of 5% or less (almost no effect))
same,Herbicidal effect on C: oval-leafed pondweed (grade 0-5),oval-leafed pondweed; 320 g/ha applied herbicide,2 (Herbicidal rate of 20% or more and less than 40%)
same,"F: southern crabgrass, herbicidal effect (criteria 0-5)",southern crabgrass; [3],0 (Herbicidal rate of 5% or less (almost no effect))
same,"G: green foxtail, herbicidal effect (criteria 0-5)",green foxtail; [3],0 (Herbicidal rate of 5% or less (almost no effect))
same,"H: barnyard grass, herbicidal effect (criteria 0-5)",barnyard grass [1]; [3],0 (Herbicidal rate of 5% or less (almost no effect))
same,"I: wild oat, herbicidal effect (criteria 0-5)",wild oat; [3],0 (Herbicidal rate of 5% or less (almost no effect))
same,"J: blackgrass, herbicidal effect (criteria 0-5)",blackgrass; [3],0 (Herbicidal rate of 5% or less (almost no effect))
same,"K: Italian ryegrass, herbicidal effect (criteria 0-5)",Italian ryegrass; [3],0 (Herbicidal rate of 5% or less (almost no effect))
same,"L: windgrass, herbicidal effect (criteria 0-5)","windgrass; AAH 320 g/ha, evaluated three weeks after application",0 (Herbicidal rate of 5% or less (almost no effect))
same,"M: velvetleaf, herbicidal effect (criteria 0-5)",velvetleaf; [3],0 (Herbicidal rate of 5% or less (almost no effect))
same,"N: redroot pigweed, herbicidal effect (criteria 0-5)","redroot pigweed; foliage application, AAH 320 g/ha",2 (Herbicidal rate of 20% or more and less than 40%)
same,"O: lambsquarters, herbicidal effect (criteria 0-5)",lambsquarters; [3],0 (Herbicidal rate of 5% or less (almost no effect))
same,"P: chickweed, herbicidal effect (criteria 0-5)",chickweed; [3],5 (Herbicidal rate of 90% or more (almost completely withered))
same,"R: persian speedwell, herbicidal effect (criteria 0-5)",persian speedwell; [3],2 (Herbicidal rate of 20% or more and less than 40%)
CCc1nn(C)c(=O)c(-c2c(-c3ccccc3OC)sc3ccc(F)cc23)c1O [2-414],"Herbicidal effect, A: late watergrass",late watergrass,2 (Herbicidal rate of 20% or more and less than 40%)
same,"Herbicidal effect, B: Japanese bulrush",Japanese bulrush,3 (Herbicidal rate of 40% or more and less than 70%)
same,"Herbicidal effect, C: oval-leafed pondweed",oval-leafed pondweed,2 (Herbicidal rate of 20% or more and less than 40%)
same,herbicidal effect on H: barnyard grass,barnyard grass [2]; [4],4 (Herbicidal rate of 70% or more and less than 90%)
same,herbicidal effect on D: Chinese sprangletop,Chinese sprangletop; [4],3 (Herbicidal rate of 40% or more and less than 70%)
same,herbicidal effect on E: rice flat sedge,rice flat sedge; [4],3 (Herbicidal rate of 40% or more and less than 70%)
same,"F: southern crabgrass, herbicidal effect grade",southern crabgrass; [5],1 (Herbicidal rate of 5% or more and less than 20%)
same,"G: green foxtail, herbicidal effect grade",green foxtail; [5],2 (Herbicidal rate of 20% or more and less than 40%)
same,"H: barnyard grass, herbicidal effect grade",barnyard grass [1]; [5],3 (Herbicidal rate of 40% or more and less than 70%)
same,"I: wild oat, herbicidal effect grade",wild oat; [5],0 (Herbicidal rate of 5% or less (almost no effect))
same,"J: blackgrass, herbicidal effect grade",blackgrass; [5],2 (Herbicidal rate of 20% or more and less than 40%)
same,"K: Italian ryegrass, herbicidal effect grade",Italian ryegrass; [5],1 (Herbicidal rate of 5% or more and less than 20%)
same,"L: windgrass, herbicidal effect grade","windgrass; 320 g/ha, three weeks after application",3 (Herbicidal rate of 40% or more and less than 70%)
same,"M: velvetleaf, herbicidal effect grade",velvetleaf; [5],3 (Herbicidal rate of 40% or more and less than 70%)
same,"O: lambsquarters, herbicidal effect grade",lambsquarters; [5],3 (Herbicidal rate of 40% or more and less than 70%)
same,"P: chickweed, herbicidal effect grade",chickweed; [5],5 (Herbicidal rate of 90% or more (almost completely withered))
same,"R: persian speedwell, herbicidal effect grade",persian speedwell; [5],5 (Herbicidal rate of 90% or more (almost completely withered))
Cc1nn(C)c(=O)c(-c2c(-c3ccc(C#N)cc3)sc3c(Cl)cccc23)c1O [4-031],"Herbicidal effect, A: late watergrass",late watergrass,2 (Herbicidal rate of 20% or more and less than 40%)
same,"Herbicidal effect, B: Japanese bulrush",Japanese bulrush,0 (Herbicidal rate of 5% or less (almost no effect))
same,"Herbicidal effect, C: oval-leafed pondweed",oval-leafed pondweed,0 (Herbicidal rate of 5% or less (almost no effect))
same,herbicidal effect on barnyard grass (H),barnyard grass [2],3 (Herbicidal rate of 40% or more and less than 70%)
same,herbicidal effect on Chinese sprangletop (D),Chinese sprangletop,3 (Herbicidal rate of 40% or more and less than 70%)
same,herbicidal effect on rice flat sedge (E),rice flat sedge,5 (Herbicidal rate of 90% or more (almost completely withered))
same,herbicidal effect on F: southern crabgrass (evaluation grade 0-5),southern crabgrass; [6],0 (Herbicidal rate of 5% or less (almost no effect))
same,herbicidal effect on G: green foxtail (evaluation grade 0-5),green foxtail; [6],2 (Herbicidal rate of 20% or more and less than 40%)
same,herbicidal effect on H: barnyard grass (evaluation grade 0-5),barnyard grass [1]; [6],0 (Herbicidal rate of 5% or less (almost no effect))
same,herbicidal effect on I: wild oat (evaluation grade 0-5),wild oat; [6],0 (Herbicidal rate of 5% or less (almost no effect))
same,herbicidal effect on J: blackgrass (evaluation grade 0-5),blackgrass; [6],0 (Herbicidal rate of 5% or less (almost no effect))
same,herbicidal effect on K: Italian ryegrass (evaluation grade 0-5),Italian ryegrass; [6],3 (Herbicidal rate of 40% or more and less than 70%)
same,herbicidal effect on M: velvetleaf (evaluation grade 0-5),velvetleaf; [6],3 (Herbicidal rate of 40% or more and less than 70%)
same,herbicidal effect on N: redroot pigweed (evaluation grade 0-5),"redroot pigweed; 320 g/ha, foliage application after 14-day growth",5 (Herbicidal rate of 90% or more (almost completely withered))
same,herbicidal effect on O: lambsquarters (evaluation grade 0-5),lambsquarters; [6],4 (Herbicidal rate of 70% or more and less than 90%)
same,herbicidal effect on P: chickweed (evaluation grade 0-5),chickweed; [6],5 (Herbicidal rate of 90% or more (almost completely withered))
same,herbicidal effect on R: persian speedwell (evaluation grade 0-5),persian speedwell; [6],0 (Herbicidal rate of 5% or less (almost no effect))
CCCC(=O)Oc1c(C)nn(C)c(=O)c1-c1c(-c2ccc(OC)c(OC)c2)sc2cc(F)c(F)cc12 [5-034],"Herbicidal effect, A: late watergrass",late watergrass,3 (Herbicidal rate of 40% or more and less than 70%)
same,"Herbicidal effect, B: Japanese bulrush",Japanese bulrush,0 (Herbicidal rate of 5% or less (almost no effect))
same,"Herbicidal effect, C: oval-leafed pondweed",oval-leafed pondweed,0 (Herbicidal rate of 5% or less (almost no effect))
same,herbicidal effect on barnyard grass (H),barnyard grass [2],4 (Herbicidal rate of 70% or more and less than 90%)
same,herbicidal effect on Chinese sprangletop (D),Chinese sprangletop,1 (Herbicidal rate of 5% or more and less than 20%)
same,herbicidal effect on rice flat sedge (E),rice flat sedge,0 (Herbicidal rate of 5% or less (almost no effect))
same,"Herbicidal effect by foliage application, F: southern crabgrass",southern crabgrass; [7],0 (Herbicidal rate of 5% or less (almost no effect))
same,"Herbicidal effect by foliage application, G: green foxtail",green foxtail; [7],3 (Herbicidal rate of 40% or more and less than 70%)
same,"Herbicidal effect by foliage application, H: barnyard grass",barnyard grass [1]; [7],0 (Herbicidal rate of 5% or less (almost no effect))
same,"Herbicidal effect by foliage application, I: wild oat",wild oat; [7],0 (Herbicidal rate of 5% or less (almost no effect))
same,"Herbicidal effect by foliage application, J: blackgrass",blackgrass; [7],0 (Herbicidal rate of 5% or less (almost no effect))
same,"Herbicidal effect by foliage application, K: Italian ryegrass",Italian ryegrass; [7],0 (Herbicidal rate of 5% or less (almost no effect))
same,"Herbicidal effect by foliage application, M: velvetleaf",velvetleaf; [7],3 (Herbicidal rate of 40% or more and less than 70%)
same,"Herbicidal effect by foliage application, N: redroot pigweed","redroot pigweed; amount of applied herbicide 320 g/ha, foliage application after 14-day growth",3 (Herbicidal rate of 40% or more and less than 70%)
same,"Herbicidal effect by foliage application, O: lambsquarters",lambsquarters; [7],4 (Herbicidal rate of 70% or more and less than 90%)
same,"Herbicidal effect by foliage application, P: chickweed",chickweed; [7],5 (Herbicidal rate of 90% or more (almost completely withered))
same,"Herbicidal effect by foliage application, R: persian speedwell",persian speedwell; [7],4 (Herbicidal rate of 70% or more and less than 90%)
